Results as given in patent publication US12594282B2, “Use of small molecule compounds in the treatment of diseases mediated by lung epithelial cell injury and/or vascular endothelial cell injury” (Guangzhou Cellprotek Pharmaceutical Co., Ltd., priority 2020, dated 2026).

Legend:
[1] = test system: primary cerebellar granule neuron; test: Intracellular lactate assay in glutamate-stimulated primary cerebellar granule neurons; type: cell-based, mice; conditions: 10 μM, pre-incubation 20 mins; 200 μM glutamate for 15 mins
Description: The cells were obtained from SD P7-8 neonatal mice. The cerebellum was taken, and the meninges and blood vessels were removed using microtweezers; the isolated cerebellar tissue was transferred to another dish containing dissection solution. The tissue was cut into pieces as small as possible using a tissue scissor. Digestion: The tissue in pieces was added into 7 mL of 0.25% trypsin digestive solution with a pipet, and was digested at 37° C. for 15 mins; the bench surface was cleaned and the instruments were washed. The container was turned upside down several times every five minutes to bring the tissue into better contact with the digestive solution. End of digestion: After the digestion, it can be seen that the tissue was sticked together and suspended in the liquid due to cell disruption and release of DNA. The digestion was terminated by adding 3 mL of RNase-containing 10% FBS DMEM medium. […] The cells were counted with a hand-held cell counter, and the seeding density was 4.0-5.0×10^5 cells/mL. […]
Pretreatment: The number of cells used for the determination of intracellular lactate content was 1-2*10^6. […] Centrifugation was performed at 16,000 g for 5 mins at 4° C., 160 μL of supernatant was collected into a new EP tube, and the remaining supernatant was subjected to BCA protein quantification. […]

[2] = test system: rat vascular endothelial cells (RAOEC); test: OGD-R injury model, LDH detection, RAOEC; type: cell-based; conditions: OGD 4 hours, restoration 24 hours, 1, 3, 10 μM, prophylactic (1 hour before OGD) or therapeutic (at restoration)
Description: HUVEC cells were cultured in modified DMEM medium containing 10% fetal bovine serum. When the cells reached about 80% confluence, the cells were digested with 0.25% trypsin, and then pipetted evenly with modified DMEM containing 10% fetal bovine serum. The cell concentration was adjusted to 1×10^5 cells/mL, and the cells were seeded at 400 uL/well in a 24-well plate, and the experiment was carried out when the cells grew to about 70% confluence. RAOEC cells were cultured in high-glucose DMEM medium containing 10% fetal bovine serum, and the seeding conditions were the same as those for HUVECs.
The hypoxia workstation was set to have an oxygen concentration of 1% (1% O2, 5% CO2, 94% N2), a temperature of 37° C., and a humidity of 85%. A sugar-free DMEM medium was placed in the hypoxia workstation for pre-hypoxia for 3 hours. The medium in the culture plate was aspirated, and the plate was washed twice with preheated sugar-free DMEM medium, and 100 uL of sugar-free DMEM medium was added to each well. […]
At the end of the experiment, 50 uL of medium was taken from each well into a 96-well plate, and then cytotoxicity was detected according to the operating instructions of the LDH detection kit. The results were calculated as follows: […]

C[C@@]12CCCC1C1C[C@@H](O)[C@]3(O)C[C@@H](O)CC[C@]3(C)C1CC2 (stereo partly drawn) [YC-6, 5α-androst-3β,5,6β-triol]
glutamate-induced intracellular accumulation of lactate [1]: significantly inhibited the accumulation of lactate | OGD-R-induced increase in LDH release [2]: significantly reduced the OGD-R-induced increase in LDH release in a dose-dependent manner
